Test [1] concerns E. cloacae P99. Nature of the test: MIC of compound alone, broth microdilution. Format: cell-based. The settings on record: Enterobacter cloacae; strain P99; compound alone; read-out: MIC compounds of the invention alone. The gist of the method: (§1)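 Growth inhibition was scored by eye after 16-20 h at 35° C (room air), with bacteria from log phase seeded at 5×10^5 cfu/mL final in cation-adjusted Mueller-Hinton medium.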

Test [2] has as its system E. coli 190317. In words: MIC of compound alone, broth microdilution. Format: cell-based. The settings on record: Escherichia coli; strain 190317; compound alone; read-out: MIC compounds of the invention alone. The gist of the method:
as §1

Test [3] deals with K. pneumoniae 6299. Nature of the test: MIC of compound alone, broth microdilution. It counts as cell-based. The settings on record: Klebsiella pneumoniae; strain 6299; compound alone; read-out: MIC compounds of the invention alone. An outline of the steps:
as §1

The subject of test [4] is K. pneumoniae BAA-1898. In words: MIC of compound alone, broth microdilution. It counts as cell-based. To be noted: Klebsiella pneumoniae, BAA1898; strain BAA-1898; compound alone; read-out: MIC compounds of the invention alone. The gist of the method:
as §1

For test [5], the system named is P. aeruginosa CIP107051. Nature of the test: MIC of compound alone, broth microdilution. It counts as cell-based. To be noted: Pseudomonas aeruginosa; strain CIP107051; compound alone; read-out: MIC compounds of the invention alone. An outline of the steps: as §1
In test [6] the target is CMY-37 (Citrobacter freundii, UniProt P05193). The settings on record: read-out: IC50 β-lactamase CMY-37.
Test [7] deals with AmpC (P99) (Enterobacter cloacae, UniProt P05364). In words: biochemical.
In test [8] the target is AmpC (PAE) (Pseudomonas aeruginosa, UniProt P24735). In words: biochemical.
Test [9] deals with OXA-15 (Pseudomonas aeruginosa, UniProt Q51574). In words: biochemical.
The target in test [10] is TEM-1 (Escherichia coli, UniProt P62593).
For test [11], the target named is SHV-1 (Klebsiella pneumoniae, UniProt P0AD64).
Test [12] has as its target CTX-M-15 (Escherichia coli, UniProt Q9EXV5).
Test [13] deals with KPC-2 (Klebsiella pneumoniae, UniProt Q9F663).
For test [14], the target named is OXA-1 (Escherichia coli, UniProt P13661).
Test [15] concerns the target OXA-11 (Pseudomonas aeruginosa, UniProt Q06778).
Test [16] has as its target OXA-48 (Klebsiella pneumoniae, UniProt Q6XEC0).
Setting [17] is: class (C), nitrocefin 200 μM, 30-min pre-incubation, enzyme 0.2 nM.

Structures can show the parent of a compound that is named as a salt. Where two headings read alike, the source gives them in different places.

Turning to `O=C1N2CC(n3ncnn3)=CC(C2)N1OS(=O)(=O)[O-].[Na+]` (stereo not drawn) [Example 44, sodium [7-oxo-3-(tetrazol-2-yl)-1,6-diazabicyclo[3.2.1]oct-3-en-6-yl]sulfate], the MIC is 4 µg/mL in [1]; 1 µg/mL in test [2]; 4 µg/mL in [3]; 4 µg/mL in test [4]; above 32 µg/mL in test [5]. In addition, the half-inhibitory concentration (IC50) in [6] amounted to 26 nM; in [7], 13 nM; in test [8], 150 nM; in test [9], 32 nM; in [10], 0.48 nM; in test [11] it was 3.3 nM. For the same compound, the 50% inhibitory concentration (IC50) turned out to be 0.86 nM in [12]; 7.3 nM in test [13]; 36 nM in test [14]; 20 nM in test [15]; 0.29 nM in test [16].

On to `NC(=O)Cc1ccn(C2=CC3CN(C2)C(=O)N3OS(=O)(=O)[O-])n1.[Na+]` (stereo not drawn) [Example 45, sodium [3-[3-(2-amino-2-oxo-ethyl)pyrazol-1-yl]-7-oxo-1,6-diazabicyclo[3.2.1]oct-3-en-6-yl]sulfate], for which the minimal inhibitory concentration (MIC) was 16 µg/mL in test [1]; 4 µg/mL in test [2]; above 32 µg/mL in test [3]; 32 µg/mL in test [4]; above 32 µg/mL in test [5]. Moreover, the IC50 came to 19 nM in [6]; 32 nM in [7]; 66 nM in [8]; 310 nM in [9]; 1.4 nM in test [10]; 4.5 nM in test [11]. Besides, the IC50 was found to be 1.3 nM in [12]; 47 nM in test [13]; 300 nM in [14]; 92 nM in test [15]; 18 nM in [16].

For `NCCONC(=O)c1ccn(C2=CC3CN(C2)C(=O)N3OS(=O)(=O)O)n1` (stereo not drawn) [Example 46, [3-[3-(2-aminoethoxycarbamoyl)pyrazol-1-yl]-7-oxo-1,6-diazabicyclo[3.2.1]oct-3-en-6-yl]hydrogen sulfate], the MIC in test [1] was 16 µg/mL; in [2], 2 µg/mL; in [3], above 32 µg/mL; in [4], 16 µg/mL; in [5], above 32 µg/mL. In addition, the IC50 in [6] (setting [17]) was 16 nM; in [7], 25 nM; in [8] it was 160 nM; in [9], 170 nM; in test [10], 0.89 nM; in test [11] it was 4 nM. In addition, the IC50 was 0.7 nM in test [12]; 11 nM in [13]; 140 nM in test [14]; 49 nM in test [15]; 3.9 nM in [16].

As for `O=C(NOCCO)c1ccn(C2=CC3CN(C2)C(=O)N3OS(=O)(=O)[O-])n1.[Na+]` (stereo not drawn) [Example 47, sodium [3-[3-(2-hydroxyethoxycarbamoyl)pyrazol-1-yl]-7-oxo-1,6-diazabicyclo[3.2.1]oct-3-en-6-yl]sulfate], the MIC in [1] is 32 µg/mL; in test [2], 8 µg/mL; in [3] it was 32 µg/mL; in test [4], 32 µg/mL; in test [5], above 32 µg/mL. In addition, the IC50 in [6] came out at 32 nM; in test [7] it was 32 nM; in [8], 480 nM; in test [9], 160 nM; in test [10] it was 1.5 nM; in [11], 9.1 nM. In addition, the IC50 in test [12] was 1.1 nM; in test [13] it was 12 nM; in test [14], 200 nM; in test [15], 100 nM; in test [16], 6.7 nM.

On to `O=C(CO)Nc1ccn(C2=CC3CN(C2)C(=O)N3OS(=O)(=O)[O-])n1.[Na+]` (stereo not drawn) [Example 50, sodium [3-[3-[(2-hydroxyacetyl)amino]pyrazol-1-yl]-7-oxo-1,6-diazabicyclo[3.2.1]oct-3-en-6-yl]sulfate], for which the minimal inhibitory concentration (MIC) was 16 µg/mL in test [1]; 8 µg/mL in test [2]; 16 µg/mL in test [3]; 32 µg/mL in test [4]; above 32 µg/mL in test [5]. Moreover, the 50% inhibitory concentration (IC50) is 5.9 nM in [6]; 12 nM in test [7]; 67 nM in [8]; 60 nM in test [9]; 1.2 nM in test [10]; 5.6 nM in [11]. Moreover, the half-maximal inhibitory concentration (IC50) in test [12] was 0.59 nM; in test [13], 12 nM; in test [14], 79 nM; in [15], 11 nM; in test [16], 5.7 nM.

Take `O=C(CCO)Nc1ccn(C2=CC3CN(C2)C(=O)N3OS(=O)(=O)[O-])n1.[Na+]` (stereo not drawn) [Example 51, sodium [3-[3-(3-hydroxypropanoylamino)pyrazol-1-yl]-7-oxo-1,6-diazabicyclo[3.2.1]oct-3-en-6-yl]sulfate]: the MIC in test [1] was 16 µg/mL; in [2] it was 8 µg/mL; in [3], 16 µg/mL; in [4], 32 µg/mL; in [5], above 32 µg/mL. In addition, the 50% inhibitory concentration (IC50) in [6] stood at 6.3 nM; in test [7] it was 17 nM; in test [8], 78 nM; in test [9], 76 nM; in test [10], 0.3 nM; in [11] it was 1.9 nM. In addition, the concentration for half-maximal inhibition (IC50) came out at 0.28 nM in [12]; 18 nM in [13]; 97 nM in test [14]; 12 nM in test [15]; 3.8 nM in test [16].

In the case of `NC(=O)CONC(=O)c1ccn(C2=CC3CN(C2)C(=O)N3OS(=O)(=O)[O-])n1.[Na+]` (stereo not drawn) [Example 52, sodium [3-[3-[(2-amino-2-oxo-ethoxy)carbamoyl]pyrazol-1-yl]-7-oxo-1,6-diazabicyclo[3.2.1]oct-3-en-6-yl]sulfate], the MIC in test [1] was 16 µg/mL; in test [2], 8 µg/mL; in test [3], 16 µg/mL; in [4] it was 32 µg/mL; in test [5], above 32 µg/mL. In addition, the IC50 in test [6] stood at 8.8 nM; in test [7], 16 nM; in [8] it was 110 nM; in test [9], 260 nM; in [10] it was 1.9 nM; in test [11], 9.1 nM. Moreover, the IC50 in [12] is 0.67 nM; in test [13] it was 11 nM; in test [14] it was 310 nM; in [15], 130 nM; in [16] it was 7.5 nM.

As to `CNCc1cn(C2=CC3CN(C2)C(=O)N3OS(=O)(=O)O)nn1` (stereo not drawn) [Example 60, [3-[4-(methylaminomethyl)triazol-1-yl]-7-oxo-1,6-diazabicyclo[3.2.1]oct-3-en-6-yl]hydrogen sulfate], the MIC in [1] was 1 µg/mL; in [2], 0.5 µg/mL; in test [3] it was above 32 µg/mL; in test [4], above 32 µg/mL; in test [5], 32 µg/mL. The IC50 was 68 nM in test [6] (setting [17]); 27 nM in [7]; 330 nM in test [8]; 8.1 nM in test [9]; 0.35 nM in [10]; 2 nM in test [11]. Further, the IC50 is 0.73 nM in [12]; 14 nM in [13]; 130 nM in test [14]; 130 nM in test [15]; 1.2 nM in test [16].

For `NCCONC(=O)c1cn(C2=CC3CN(C2)C(=O)N3OS(=O)(=O)O)nn1` (stereo not drawn) [Example 63, [3-[4-(2-aminoethoxycarbamoyl)triazol-1-yl]-7-oxo-1,6-diazabicyclo[3.2.1]oct-3-en-6-yl]hydrogen sulfate], the minimal inhibitory concentration (MIC) in [1] is 16 µg/mL; in test [2] it was 8 µg/mL; in [3], above 32 µg/mL; in [4], 32 µg/mL; in test [5] it was above 32 µg/mL. Besides, the IC50 worked out at 55 nM in test [6] (setting [17]); 19 nM in test [7]; 530 nM in test [8]; 41 nM in test [9]; 0.86 nM in test [10]; 6.9 nM in test [11]. Further, the half-maximal inhibitory concentration (IC50) in [12] came to 0.53 nM; in test [13], 4.7 nM; in [14], 52 nM; in test [15], 110 nM; in test [16] it was 0.97 nM.
